Measurements published in patent US4757089A, “Increasing aqueous humor outflow” (Massachusetts Eye and Ear Infirmary, priority 1986, dated 1988).
Counter-ions that a name gives are not always drawn. Like-named read-outs stand apart in the source and are kept apart here.

Key:
monkey eye = conditions: perfused monkey eye, 15 mm Hg, 22° C.; cited from earlier work
calf eye = conditions: perfused calf eye, 15 mm Hg, 22° C.; cited from earlier work
intraocular pressure [1] = assay: Intraocular pressure in monkeys a few days after perfusion; type: in vivo, cynomologous monkeys; conditions: both eyes
Protocol: (§1) Each animal was randomly assigned one eye for the experimental and the other for its control perfusion. The animals were fasted the night before the experiment. They were anesthetized intramusclarly with Methohexital Sodium 15 mg/kg and Pentobarbital Sodium 35 mg/kg. Supplemental anesthesia as required was carried out with Pentobarbital 10 mg/kg/hour. Needles were placed through the cornea into the anterior chamber and a two-step constant pressure perfusion method was performed in order to determine aqueous humor outflow facility. The basic medium for perfusion was Dulbecco's phosphate buffered saline with added 5.5 mM glucose. A 10 microliter bolus of the experimental or control solution (that would produce the desired final concentration in the anterior chamber) was injected through a T shaped connector piece in the infusion line.

aqueous humor outflow = assay: Two-step constant pressure perfusion, aqueous humor outflow facility in monkeys; type: in vivo, cynomologous monkeys
Description: (§2) Ethacrynic acid (sodium salt) was used to increase aqueous humor outflow in cynomologous monkeys, as described below. Ethacrynic acid can be purchased from Merck, Sharp, and Dome, and is described in U.S. Pat. No. 3,255,241, hereby incorporated by reference. Ethacrynic acid has the chemical formula [2,3-dichloro-4-(2-methylene-1-oxobutyl) phenoxy] acetic acid. Any suitable analogs described in U.S. Pat. No. 3,255,241 can also be used as described herein.
Each animal was randomly assigned one eye for the experimental and the other for its control perfusion. The animals were fasted the night before the experiment. They were anesthetized intramusclarly with Methohexital Sodium 15 mg/kg and Pentobarbital Sodium 35 mg/kg. Supplemental anesthesia as required was carried out with Pentobarbital 10 mg/kg/hour. Needles were placed through the cornea into the anterior chamber and a two-step constant pressure perfusion method was performed in order to determine aqueous humor outflow facility. […]
Each vial of ethacrynic acid contained ethacrynate sodium powder equivalent to 50 mg of ethacrynic acid. […] The solution was mixed at room temperature until dissolved, and the pH was determined (always 7.2) before use; the solution was filtered with a 0.2 micron filter (Nuclepore); this produced a solution which was stable for twenty four hours. […]

[2] = type: physicochemical
Protocol: (§3) Each vial of ethacrynic acid contained ethacrynate sodium powder equivalent to 50 mg of ethacrynic acid. […] The powder was diluted with the above basic medium (Dulbecco's with added glucose) to yield the desired concentration. The solution was mixed at room temperature until dissolved, and the pH was determined (always 7.2) before use; the solution was filtered with a 0.2 micron filter (Nuclepore); this produced a solution which was stable for twenty four hours.
Ethcrynic acid powder was dissolved in 3% methylcellulose to yield the desired concentration. The solution was mixed at room temperature for one hour and was stable for twenty four hours. A similar osmotically balanced control solution was prepared. 3% methylcellulose was prepared as follows: methylcellulose powder (4000 CPS) was obtained from Dow company (lot number 14728). A 3% solution was prepared from powder dissolved in distilled water using low heat for several hours. The solution was refrigerated over night to yield a transparent, viscous fluid. The pH of the solution was determined by mixing one part of the control or experimental solution with five parts of distilled water. The pH ranged between 6.2 and 6.5 for both the control and experimental solutions. The 3% methylcellulose solution was refrigerated when not in use.

eye [3] = assay: Ocular changes and side effects after anterior chamber perfusion in monkeys; type: in vivo, cynomologous monkeys
Description: as §2, §1, §3
During perfusion experiments, a 10 microliter bolus injection was made using a Hamilton syringe. Since the monkey anterior chamber is approximately 200 microliters, our calculations were as follows. To achieve a final concentration of 0.5 mM ethacrynic acid, 10 microliters of 10 mM ethacrynic acid was infused.
Experiments were carried out using final ethacrynic acid concentrations in the aqueous humor of 0.1 mM to 0.5 mM. There were at least three animals and separate experiments carried out for each of the concentrations […], 0.25 mM, and […].

eye [4] = assay: Ocular side effects after topical instillation in rabbits; type: in vivo, Dutch-belted rabbits
intraocular pressure [5] = assay: Intraocular pressure after topical instillation in rabbits (Digilab Pneumotonometer); type: in vivo, Dutch-belted rabbits; conditions: 10 mM and 3% methylcellulose, twenty four hours after instillation, fourteen rabbits, changed from 23.0, p less than 0.001, control eye 22.9 to 24.2
Protocol: For rabbit experiments Dutch-belted rabbits of either sex weighing 1.5 to 2 kg were used for topical studies. Each animal was randomly assigned one eye for the experimental and the other for its control solution. Intraocular pressure was measured using a Digilab Pneumotonometer. Any animals showing asymmetry of intraocular pressure greater than 2 mm were excluded form the study.
The protocol was as follows. Baseline intraocular pressure was taken in each eye using 0.5% proparacaine hydrochloride for topical anesthesia. Then a 100 microliter drop of either control solution or ethacrynic acid dissolved in 3% methylcellulose was instilled into one of the two eyes. In a half hour this was repeated. Two hours later intraocular pressure was measured in each eye. In some animals intraocular pressure was also measured five hours later and all animals had measurement of intraocular pressure the following day.
Ethcrynic acid powder was dissolved in 3% methylcellulose to yield the desired concentration. The solution was mixed at room temperature for one hour and was stable for twenty four hours. A similar osmotically balanced control solution was prepared. […] The pH of the solution was determined by mixing one part of the control or experimental solution with five parts of distilled water. […]

Water solubility = type: physicochemical; conditions: volume not given

## CCN1C(=O)C=CC1=O [NEM, N-ethylmaleimide]
Monkey eye
  effect on outflow in the monkey eye: increase in outflow
Calf eye
  dosage producing a significant increase in the facility of outflow: ≥ 4.7 mM

## C=C(CC)C(=O)c1ccc(OCC(=O)O)c(Cl)c1Cl [ethacrynic acid, [2,3-dichloro-4-(2-methylene-1-oxobutyl)phenoxy] acetic acid]
Intraocular pressure [1]
  intraocular pressure: symmetrical and normal in both eyes
Aqueous humor outflow; 0.25 mM final concentration
  outflow facility response: approximately half the animals perfused responded with a substantial increase in outflow facility
Aqueous humor outflow; lower dosages (below 0.25 mM; 0.1 mM tested)
  outflow facility effect: no effect
[2]
  stability of solution: twenty four
[2]; pH 7.2
  stability of solution: twenty four
Eye [3]; dosages above 0.25 mM
  pupil dilation in treated eye: some of the animals developed a dilated pupil
Eye [3]; experimental and control eyes, believed to result from perfusion technique
  adhesions of the iris to the peripheral cornea: A small number of animals in both the experimental and control eyes developed adhesions of the iris to the peripheral cornea
Eye [3]; monkey perfusion
  chronic corneal edema, opacities or cataract formation: no chronic corneal edema or opacities or cataract formation
  corneal or crystalline lens changes: no apparent corneal or crystalline lens changes
Eye [4]; 5 mM, topical
  conjunctival injection: slight conjunctival injection
Eye [4]; 10 mM, topical
  conjunctival injection and irritation: moderate conjunctival injection and signs of irritation
Eye [4]; higher concentrations (above 10 mM)
  reversibility of corneal toxicity and inflammation: resolved without apparent seguelae
Eye [4]; higher concentrations (above 10 mM), for several days
  corneal toxicity and anterior chamber inflammation: signs of corneal toxicity (corneal edema) and anterior chamber inflammation
Intraocular pressure [5]
  intraocular pressure in treated eye, 24 h: 20.0 mmHg

## C=C(CC)C(=O)c1ccc(OCC(=O)O)c(Cl)c1Cl [sodium salt of ethacrynic acid]
Water solubility
  solubility in water: about 0.04 g
